In patent US4395969A (priority 1981, dated 1983):
Read-outs that look alike come from different tables or passages of the source.

Assays:
[1] = test system: sucker and stickleback; details: cited from earlier work
[2] = test system: chinook salmon; details: in vivo
[3] = in vivo; details: chinook salmon
[4] = test system: threespine stickleback; design: species or system Gasterosteus aculeatus; details: in vivo
[5] = test system: threespine stickleback; design: species or system Gasterosteus aculeatus; details: in vivo, 5760 min
[6] = test system: bridgelip sucker; design: species or system Catastomus columbianus; details: in vivo
[7] = test system: steelhead trout; details: in vivo
[8] = test system: salmonids
[9] = test system: sucker and stickleback; details: in vivo
[10] = test system: bridgelip sucker; assay: Selectivity and safety indices of salmonids versus the bridgelip sucker; format: in vivo, Catastomus columbianus; details: steelhead trout; 24 h
Description: Delineation bioassays determined primarily the LC50 and LC100 of sucker and stickleback and the LC0 and LC50 of salmonids.
The statistical LC1, LC50, and LC99 were interpolated and/or extrapolated using probit graph paper to approximate the LC0, LC50, and LC100 when the latter set of values was not closely determined by single concentrations in a series.
The approximate LC50 and LC100 of the target fishes (threespine and brook sticklebacks and bridgelip and white suckers) are tabulated in Table 1. The 96-hour selectivity and safety indices of selected species of salmonids versus the three-spine stickleback are tabulated in Table 3.
Threespine stickleback, brook stickleback, bridgelip sucker, white sucker, chinook salmon, coho salmon, sockeye salmon, kokanee, Kamloops trout, cutthroat trout, and brook trout were treated with various concentrations of 2, 2, 2, 1-tetrachloroethyl diethyl phosphate and at various temperatures to determine approximate selectivity and safety indices. The approximate LC50 and LC100 of the target fishes (threespine and brook sticklebacks and bridgelip and white suckers) are tabulated in Table 5. The 96-hour selectivity and safety indices of selected species of salmonids versus the threespine stickleback are tabulated in Table 7.

[11] = test system: carp; details: used in ponds; cited from earlier work
[12] = published literature; cited from earlier work

With `C=C(C)[C@H]1Cc2c(ccc3c2O[C@@H]2COc4cc(OC)c(OC)cc4[C@@H]2C3=O)O1` [rotenone] as the compound, how does the “control of sucker and stickleback numbers by spot poisoning” value ([1]; background) read?
Its value is “ineffective in controlling sucker and stickleback numbers”.

With `O=C(O)C(Cl)Cl` [dichloroacetic acid, reference compound] as the compound, how does the mortality [2] read?
Its mortality is “suffered no mortalities”.

For `CCOP(=O)(OCC)OC(=C(Cl)Cl)P(=O)(OCC)OCC` [2,2-dichloro-1-diethyl phosphonovinyl diethyl phosphate], which LC50 [3] is on record?
Its LC50 is 0.018 to 0.02 µg/mL.

And the LC50 [4]?
Its LC50 is 0.008 µg/mL.

What about the “Safety index (LC0/LC100)” value [5] of the same compound?
The value was 0.9.

Which results are given for “O,O-diethyl S-(2,2-dichlorovinyl) thiophosphate”?
activity and selectivity of the two chemicals [6]: very similar; concentration of 100% mortality of sucker [6]: 0.1 mg/L; concentration below which no mortality occurred in steelhead [7]: below 1.0 mg/l; harm to salmonids ([8]; 24-hour bioassays, about 15 C): harmless to salmonids; selectivity/specificity for sucker and stickleback [9]: extremely selective for suckers and stickleback

Which “activity and selectivity of the two chemicals” value [6] does the source give for `CCOP(=O)(OCC)OC(Cl)CCl` (stereo not shown) [1,2-dichloroethyl diethyl phosphate] here?
The value was “very similar”.

What about the “concentration of 100% mortality of sucker” value [6] of the same compound?
The value was 0.1 mg/L.

What about the “concentration of almost 100% mortality of sucker” value [6] of the same compound?
The value was 0.3 mg/L.

What about the safety index [10] of the same compound?
The safety index was 10.

What about the selectivity index [10] of the same compound?
Its selectivity index is 35.

What about the “concentration below which almost no mortality occurred in trout” value [7] of the same compound?
Its value is “below 3.0 mg/l”.

And the “concentration below which no mortality occurred in steelhead” value [7]?
Its value is “below 5.0 mg/l”.

What about the harm to salmonids ([8]; in vivo) of the same compound?
The harm to salmonids was “harmless to salmonids”.

And the “selectivity/specificity for sucker and stickleback” value [9]?
Its value is “extremely selective for suckers and stickleback”.

With `CCOP(=O)(OCC)OC(Cl)=C(Cl)Cl` [2,2,1-trichlorovinyl diethyl phosphate] as the compound, how does the LC50 [3] read?
Its LC50 is 0.018 to 0.02 µg/mL.

And the LC50 [4]?
Its LC50 is 0.008 µg/mL.

What about the LC100 [4] of the same compound?
The LC100 was roughly 11 µg/L.

And the toxicity to stickleback [4]?
Its toxicity to stickleback is “almost as toxic to stickleback as 2,2,2,1-tetrachloroethyl diethyl phosphate”.

And the LC0 ([2]; chinook salmon)?
Its LC0 is “about 16 μg/l”.

What about the “activity relative to the dichloro-compounds” value [9] of the same compound?
Its value is “about 100 times”.

Which injury to carp [11] does the source give for `COP(=O)(OC)OC=C(Cl)Cl` [O,O-dimethyl O-(2,2-dichlorovinyl) phosphate] here?
Its injury to carp is “without injuring carp”.

And the carcinogenicity / residues [12]?
Its carcinogenicity / residues is “none suggest that DDVP is a carcinogen or concentrates residues”.

What about the “selectivity for stickleback or suckers” value ([1]; in vivo) of the same compound?
Its value is “no selectivity for stickleback or suckers”.
